Reference: article PMC7942396, “Drug Repurposing Screen for Compounds Inhibiting the Cytopathic Effect of SARS-CoV-2” (Frontiers in Pharmacology, 2021)
Structures can show the parent of a compound that is named as a salt. Where two headings read alike, the source gives them in different places.

Columns and labels:
[1] = tested on: SARS-CoV-2 (USA_WA1/2020); assay: microbe, parasite or virus in culture; type: cell-based; settings: for EC50: read-out: CPE EC50
[2] = tested on: Vero E6 cells; settings: Vero E6 cells without virus; for CC50: read-out: Cytotox CC50
[3] = SARS-CoV-2 CPE assay, Vero E6 cells
[4] = SARS-CoV-2 CPE assay, Vero E6 cells, confirmed anti-SARS-CoV-2 compounds
[5] = SARS-CoV-2 CPE assay, Vero E6 cells, efficacy
[6] = […], DMSO 0%, no-virus control 100%, hit confirmation

Compound	CPE % Efficacy [1, 3] [%]	EC50 [1, 3] [µM]	% Cytotox ([2]; cytotoxicity counter-assay) [%]	CC50 ([2]; cytotoxicity counter-assay) [µM]	EC50 [1, 4] [µM]	CPE % Efficacy [1, 5] [%]	CPE % Efficacy [1, 6] [%]	EC50 [1] [µM]	% Cytotox ([2]; 72 h) [%]
O=C1NC(=O)/C(=C/c2ccc3c(c2)OC(F)(F)O3)S1 [AS-604850]	49.2	12.6	31.8	11.2	–	–	–	–	–
Br.O=C(CN1C2=NCCN2c2ccccc21)c1ccc(-c2ccccc2)cc1 [CCT 031374 hydrobromide]	–	–	33.8	12.6	7.94	63.4	–	–	–
CN1CCCCC1Cn1cc(C(=O)c2cc([N+](=O)[O-])ccc2I)c2ccccc21 (stereo not shown) [AM1241, reference compound]	–	–	–	–	–	–	97.6	10	<30
C/C(=N\NC(=O)c1cccc(S(=O)(=O)N2CCOCC2)c1)c1cc(Cl)ccc1O [SP2509]	–	–	67.4	1	1.26	42.0	–	–	–
COc1ccc(-c2cc(C(O)C3CCCCN3)c3ccccc3n2)cc1.Cl.Cl (stereo not shown) [NSC-23925]	–	–	49.3	10	5.62	40.3	–	–	–
COc1ccc(CN2CCN(CCCSc3cc(C(C)(C)C)c(O)c(C(C)(C)C)c3)CC2)c(OC)c1OC [S-15176 difumarate salt, reference compound]	–	–	–	–	–	–	127.4	3.8	<30
CN(C)S(=O)(=O)c1ccc(NC(=S)N2CCC(C(O)(c3ccccc3)c3ccccc3)CC2)cc1 [CYM 9484]	–	–	13.8	19.9	11.2	30.8	–	–	–
COc1cccc(-n2c(=O)[nH]c3cc(Cl)n(-c4ccc(-c5cccc(OC)c5O)cc4)c3c2=O)c1 [GSK621]	–	–	58.4	–	11.2	77.9	–	–	–
C/C=C(/C)C(=O)O[C@H]1[C@@H]2[C@H](C)C(=O)O[C@@H]2C[C@@H](C)[C@@H]2C=CC(=O)[C@]21C [Brevelin A]	–	–	59.7	11.2	3.55	61.5	–	–	–
COc1ccc(NS(=O)(=O)c2sc3ccc(Cl)cc3c2C)cc1N1CCNCC1 [SB 271046 hydrochloride, reference compound]	–	–	–	–	–	–	107.5	10	<30
Nc1nc2c(c(N3CC[C@@H](N)C3)n1)CCCc1ccccc1-2 [A 943931]	–	–	34.8	12.6	11.2	104.3	–	–	–
NC(=O)c1cccc(-c2cc(Nc3ccc(OC(F)(F)F)cc3)ncn2)c1 [GNF-2]	63.4	11.2	0.0	–	–	–	–	–	–
C/C=C(\C)C(=O)O[C@H]1C=C(CO)C(=O)[C@H](OC(C)=O)[C@H]1C(C)C [NCGC00180769]	–	–	103.1	10	3.55	30.1	–	–	–
CS(=O)(=O)NCC1CCC(Nc2nc3c(s2)CCSc2ccccc2-3)CC1 (stereo not shown) [LU AA33810]	48.3	12.6	0.0	–	–	–	–	–	–
COc1cc2nc(N3CCC(N4CCCCC4)CC3)nc(NC3CCCCCC3)c2cc1OC.Cl.Cl [C 021 dihydrochloride]	–	–	108.9	7.08	3.55	79.7	–	–	–
CCOc1ccc(-c2nc(-c3cccc4c3CCC4NCCO)no2)cc1OCC.Cl (stereo not shown) [CYM 5442 hydrochloride]	–	–	0.0	–	11.2	134.3	–	–	–
CC(=O)OC1[C@H]2[C@@H](C[C@@H](C)[C@@H]3C=CC(=O)[C@@]13C)OC(=O)[C@@H]2C (stereo partly shown) [NCGC00385908]	–	–	44.4	11.2	7.08	67.1	–	–	–
Cc1c(CCOc2ccc(C(=O)O)cc2)c2cc(Cl)ccc2n1C(c1ccccc1)c1ccccc1 [CDIBA]	52.2	14.1	77.1	12.6	–	–	–	–	–

Compound	CPE % Efficacy [1, 3] [%]	EC50 [1, 3] [µM]	% Cytotox ([2]; cytotoxicity counter-assay) [%]	CC50 ([2]; cytotoxicity counter-assay) [µM]	EC50 [1, 4] [µM]	CPE % Efficacy [1, 5] [%]	CPE % Efficacy [1, 6] [%]	EC50 [1] [µM]	% Cytotox ([2]; 72 h) [%]
NC(=O)c1ccc2nc(-c3ccc(Oc4ccc(Cl)cc4)cc3)[nH]c2c1 [BML-277]	–	–	33.9	–	–	73.6	–	–	–
Cn1cc(-c2ccc(-c3cncc(Cl)c3N3CCC4(CCNC4=O)CC3)cc2)cn1 [CCT-251545]	65.2	14.1	0.0	–	–	–	–	–	–
COc1ccc2c(c1)c(CCN(C)C)cn2S(=O)(=O)c1ccccc1.O=C(O)C(=O)O [MS 245 oxalate]	76.1	12.6	20.5	12.6	–	–	–	–	–
c1ccc(-c2ccc(CNc3nc(-c4ccccn4)nnc3-c3ccccc3)cc2)cc1 [ML-228]	–	–	74.8	0.56	0.63	69.4	–	–	–
10058-F4	62.2	12.6	34.2	–	–	–	–	–	–
COc1cc2ncnc(Sc3nnc(C)s3)c2cc1OC [SKLB1002]	–	–	34.8	7.08	3.55	73.0	–	–	–
O=C(NCCCN1CCN(c2ccccc2F)CC1)c1ccc2nc(Cc3ccccc3)oc2c1 [NCGC00133175]	95.1	14.1	25.5	15.8	–	–	–	–	–
O=C1NC(=O)c2cc(Nc3ccccc3)c(Nc3ccccc3)cc21 [DAPH]	–	–	79.5	11.2	3.98	53.9	–	–	–
COc1ccc(S(=O)(=O)N(CCO)c2ccccc2CN(C)C/C=C/c2ccc(Cl)cc2)cc1 [KN-93]	–	–	34.4	11.2	11.2	69.0	–	–	–
Cc1cccc2c1CC[C@H](CN1CCC(c3c(Cl)cccc3Cl)CC1)C[C@@H]2O.Cl [SB 612111 hydrochloride]	–	–	59.7	12.6	8.91	53.8	–	–	–
COc1ccccc1OCCNCC(O)COc1cccc2[nH]c3ccccc3c12.O=C(O)C(O)C(O)C(=O)O (stereo not shown) [Carvedilol tartrate]	–	–	12.7	11.2	11.2	101.1	–	–	–
CC1(C)CCC(C)(C)c2cc(C#Cc3ccc(C(=O)O)cc3)ccc21 [EC 23]	–	–	74.0	12.6	3.98	110.5	–	–	–
CC(C)(C)Cn1c(N)nc2ccc(-c3[nH]c(C(C)(C)C)nc3-c3ccc(F)cc3)nc21 [LY-2228820 (ralimetinib)]	–	–	78.9	12.6	1.58	85.9	–	–	–
N#Cc1c(C2CCNCC2)cc(-c2c(O)cccc2OCC2CC2)nc1N [IKK-2 inhibitor VIII, reference compound]	–	–	–	–	–	–	91.7	7.1	<30
Cn1ncc2cc(-c3cnc(N)c(Cl)c3N3CCC4(CCNC4=O)CC3)ccc21 [CCT-251921]	–	–	39.8	–	2.82	87.9	–	–	–
C/C=C(\C)C(=O)OC1C(C)C2(O)C3C=C(C)C(=O)C3CC(CO)=CC2C2C(C)(C)C12OC(C)=O (stereo not shown) [NCGC00380717]	–	–	9.9	0.35	0.78	67.0	–	–	–
COc1ccc(CCNCc2ccc(OC)c3ccccc23)cc1 [SBI-0087702]	–	–	24.6	7.08	11.2	106.7	–	–	–
